“And” between values parts separate entries of the source, which are not always exact repeats. Equal values may be shown once.
Conditions: instrument: DT, single field, calibrated with ESI Low Concentration Tuning Mix (Agilent)

| collision cross section (N2) ([M+Na]+) | collision cross section (N2) ([M-H]-) | collision cross section (N2) ([M+H]+) | other results | Compound |
| --- | --- | --- | --- | --- |
| 157 Å² and 164.7 Å² | 162.4 Å² |  |  | Nc1ccn([C@H]2C[C@H](O)[C@@H](COP(=O)(O)O)O2)c(=O)n1 [DEOXYCYTIDINE MONOPHOSPHATE] |
| 134.3 Å² |  |  |  | O=CC[C@H](O)[C@H](O)CO [DEOXYRIBOSE] |
|  |  |  | collision cross section (N2) ([M+H]+*): 153.9 Å²; collision cross section (N2) ([M+Na]+*): 157.2 Å² | C[C@H](O)[C@H](O)C1=Nc2c([nH]c(N)nc2=O)NC1 [DIHYDROBIOPTERIN] |
|  | 131.8 Å² | 142.3 Å² |  | NCCc1ccc(O)c(O)c1 [DOPAMINE] |
| 129.9 Å² |  |  |  | OC[C@@H](O)[C@@H](O)CO [ERYTHRITOL] |
| 205.7 Å² | 192 Å² | 196.2 Å² | collision cross section (N2) ([M+Na-2H]-): 201.3 Å² | Nc1nc(=O)c2nc(CNc3ccc(C(=O)N[C@@H](CCC(=O)O)C(=O)O)cc3)cnc2[nH]1 [FOLATE] |
| 138.7 Å² |  |  |  | C[C@@H]1OC(O)[C@@H](O)[C@H](O)[C@@H]1O (stereo partly specified) [FUCOSE] |
| 146.9 Å² | 132.6 Å² |  | collision cross section (N2) ([M+Na-2H]-): 137.2 Å² | O=C(O)[C@@H](O)[C@H](O)[C@H](O)[C@@H](O)C(=O)O [GALACTARATE] |
| 142.2 Å² | 130.5 Å² |  |  | OC[C@@H](O)[C@H](O)[C@H](O)[C@@H](O)CO [GALACTITOL] |
| 146.2 Å² and 146.3 Å² | 132.4 Å² |  |  | O=C(O)[C@H](O)[C@@H](O)[C@H](O)[C@H](O)CO [GLUCONATE] |
|  | 149.4 Å² |  |  | N[C@@H]1[C@@H](O)[C@H](O)[C@@H](COS(=O)(=O)O)O[C@H]1O [GLUCOSAMINE 6-SULFATE] |
|  | 123.8 Å² | 131.1 Å² | collision cross section (N2) ([M+K]+): 149.8 Å²; collision cross section (N2) ([M+Na-2H]-): 131.8 Å² | N[C@@H](CCC(=O)O)C(=O)O [GLUTAMATE] |
|  | 127.3 Å² | 130.9 Å² |  | NC(=O)CC[C@H](N)C(=O)O [GLUTAMINE] |
| 167.1 Å² | 165.3 Å² | 161.1 Å² |  | C[N+](C)(C)C[C@@H](CC(=O)[O-])OC(=O)CCCC(=O)O [GLUTARYLCARNITINE] |
| 203.6 Å² | 200.7 Å² | 196.8 Å² |  | C[C@H](CCC(=O)NCC(=O)O)[C@H]1CC[C@H]2[C@@H]3[C@H](O)C[C@@H]4C[C@H](O)CC[C@]4(C)[C@H]3CC[C@]12C [GLYCOCHENODEOXYCHOLATE] |
| 134.6 Å² |  | 124.9 Å² |  | NC(N)=NCC(=O)O [GUANIDINOACETATE] |
| 148 Å² | 130.2 Å² | 136.8 Å² | collision cross section (N2) ([M+Na-2H]-): 147 Å² | NC(N)=N[C@@H](CC(=O)O)C(=O)O [GUANIDINOSUCCINATE] |
| 222.3 Å² | 209 Å² | 227.4 Å² | collision cross section (N2) ([M+Na-2H]-): 205.5 Å² and 217.2 Å² | Nc1nc(=O)c2ncn([C@@H]3O[C@H](COP(=O)(O)OP(=O)(O)O[C@H]4O[C@H](CO)[C@@H](O)[C@H](O)[C@@H]4O)[C@@H](O)[C@H]3O)c2[nH]1 [GUANOSINE DIPHOSPHATE MANNOSE] |
| 188.4 Å² | 182.4 Å² | 192 Å² | collision cross section (N2) ([M+Na-2H]-): 186.4 Å² | Nc1nc(=O)c2ncn([C@@H]3O[C@H](COP(=O)(O)OP(=O)(O)O)[C@@H](O)[C@H]3O)c2[nH]1 [GUANOSINE DIPHOSPHATE] |
|  | 193 Å² |  | collision cross section (N2) ([M+Na-2H]-): 184.2 Å² | Nc1nc(=O)c2ncn([C@@H]3O[C@H](COP(=O)(O)OP(=O)(O)OP(=O)(O)O)[C@@H](O)[C@H]3O)c2[nH]1 [GUANOSINE TRIPHOSPHATE] |

| collision cross section (N2) ([M+Na]+) | collision cross section (N2) ([M-H]-) | collision cross section (N2) ([M+H]+) | other results | Compound |
| --- | --- | --- | --- | --- |
| 174.9 Å² | 162.1 Å² | 163.4 Å² | collision cross section (N2) ([M+K]+): 174.3 Å² | Nc1nc(=O)c2ncn([C@@H]3O[C@H](CO)[C@@H](O)[C@H]3O)c2[nH]1 [GUANOSINE] |
|  |  | 120.4 Å² |  | NCCc1cnc[nH]1 [HISTAMINE] |
| 134.6 Å² and 134.8 Å² | 128.1 Å² and 128.5 Å² | 131.7 Å² and 132.1 Å² |  | N[C@@H](Cc1cnc[nH]1)C(=O)O [HISTIDINE] |
| 131.9 Å² | 127.5 Å² | 128.7 Å² |  | NC(CO)Cc1cnc[nH]1 (stereo unspecified) [HISTIDINOL] |
|  | 143.6 Å² | 130.3 Å² | collision cross section (N2) ([M+Na-2H]-): 127.6 Å² | N[C@@H](CCS)C(=O)O [HOMOCYSTEINE] |
| 158.8 Å² | 151.6 Å² | 158 Å² | collision cross section (N2) ([M+Na-2H]-): 154.2 Å² | NC(CCSSCCC(N)C(=O)O)C(=O)O (stereo unspecified) [HOMOCYSTINE] |
| 170.8 Å² | 158.2 Å² |  | collision cross section (N2) ([M+K]+): 170.2 Å² | O=c1nc[nH]c2c1ncn2[C@@H]1O[C@H](CO)[C@@H](O)[C@H]1O [INOSINE] |
| 142.7 Å² | 127 Å² |  | collision cross section (N2) ([M+Na-2H]-): 136.4 Å² | O=C(O)CC(C(=O)O)C(O)C(=O)O (stereo unspecified) [ISOCITRATE] |
| 131.7 Å² | 118.7 Å² |  |  | C=C(CC(=O)O)C(=O)O [ITACONATE] |
| 147.5 Å² | 140.6 Å² | 149.4 Å² |  | N[C@@H](Cc1ccc(O)c(O)c1)C(=O)O [L-DOPA] |
|  | 130.6 Å² | 134.8 Å² |  | CC(C)C[C@H](N)C(=O)O [LEUCINE] |
| 177 Å² |  |  |  | CCCCC/C=C\C/C=C\CCCCCCCC(=O)O [LINOLEATE] |
|  | 115.9 Å² |  |  | O=C(O)CC(O)C(=O)O (stereo unspecified) [MALATE] |
| 178.9 Å² | 180.1 Å² |  | collision cross section (N2) ([M+K]+): 181.7 Å² | OC[C@H]1O[C@H](O[C@H]2[C@H](O)[C@@H](O)[C@H](O)O[C@@H]2CO)[C@H](O)[C@@H](O)[C@@H]1O [MALTOSE] |
|  | 130.2 Å² |  |  | O=C([O-])C(O)c1ccccc1 (stereo unspecified) [MANDELATE] |
| 141.5 Å² |  |  |  | OC[C@H]1OC(O)[C@@H](O)[C@@H](O)[C@@H]1O (stereo partly specified) [MANNOSE] |
| 132.9 Å² | 128.7 Å² |  |  | C[C@@](O)(CCO)CC(=O)[O-] [MEVALONATE] |
| 148.6 Å² | 131.3 Å² |  |  | OC1C(O)C(O)C(O)C(O)C1O (stereo unspecified) [MYOINOSITOL] |
| 142.4 Å² | 136.9 Å² |  | collision cross section (N2) ([M+Na-2H]-): 143.3 Å² | CC(=O)N[C@@H](CCC(=O)O)C(=O)O [N-ACETYLGLUTAMATE] |
| 149.9 Å² | 140.5 Å² |  |  | CC(=O)N[C@@H](CC(C)C)C(=O)O [N-ACETYLLEUCINE] |
